Patent US12077555B2, “STAT degraders and uses thereof” (Kymera Therapeutics, Inc., priority 2019, dated 2024)

What follows are compounds tested against STAT3 (Homo sapiens, UniProt P40763) (assay: STAT3 HiBiT degradation assay in transfected A549 cells). Details: A549, 24 h; read-out: STAT3 HiBiT A549 degradation 24 h: Average external-Abs DC50.
Assay type: cell-based
Parameters: expressed in transfected cells; host or cells: A549
Procedure: Compound preparation and Cell seeding: The transfected A549 cells were harvested from dish into cell culture medium and cell numbers counted. Cells were diluted with culture medium to the desired density and 30 μL of cell suspension (about 2000 cells/well) were added into each well of a 384-well cell culture plate as designated and transferred into 37° C. 5% CO2 incubator for 24 h. Compounds were dissolved to 10 mM stock solution and 12 μL of the stock solution was transferred to a 384 LDV-plate. 3 fold, 10-point dilution was performed by transferring 4 μL compound into 8 μL DMSO using a TECAN (EVO200) liquid handler. 30 μL of diluted compound from compound source plate was transferred into the cell plate as designated by using Echo550 and transferred into 37° C. 5% CO2 incubator for 24 h.
Detection: Plates were removed from incubators and equilibrated at room temperature for 15 minutes. Nano-Glo Hibit Lytic Detection reagent (Promega Cat #N3040) was thawed and equilibrated to room temperature before the experiment. 30 μL of Nano-Glo Hibit Lytic Detection reagent was added into each well to be detected. The plates were held at room temperature for 10 min followed by reading on EnSpire.
Data analysis: The remaining activity was calculated following the formula: Remaining Activity (%)=100%×(Lumsample−LumNC)/(LumPC−LumNC). Calculate the IC50 by fitting the curve using Xlfit (v5.3.1.3), equation 201: fit=(A+((B−A)/(1+((x/C)^D)))); A: Bottom; B: Top; C: IC50; and D: Slope.
The letter codes for STAT3 DC50 include: A (<0.01 μM), B (0.01-0.1 μM), C (0.1-1.0 μM), and D (>1.0 μM).

Sequence of STAT3 (P40763 whole entry): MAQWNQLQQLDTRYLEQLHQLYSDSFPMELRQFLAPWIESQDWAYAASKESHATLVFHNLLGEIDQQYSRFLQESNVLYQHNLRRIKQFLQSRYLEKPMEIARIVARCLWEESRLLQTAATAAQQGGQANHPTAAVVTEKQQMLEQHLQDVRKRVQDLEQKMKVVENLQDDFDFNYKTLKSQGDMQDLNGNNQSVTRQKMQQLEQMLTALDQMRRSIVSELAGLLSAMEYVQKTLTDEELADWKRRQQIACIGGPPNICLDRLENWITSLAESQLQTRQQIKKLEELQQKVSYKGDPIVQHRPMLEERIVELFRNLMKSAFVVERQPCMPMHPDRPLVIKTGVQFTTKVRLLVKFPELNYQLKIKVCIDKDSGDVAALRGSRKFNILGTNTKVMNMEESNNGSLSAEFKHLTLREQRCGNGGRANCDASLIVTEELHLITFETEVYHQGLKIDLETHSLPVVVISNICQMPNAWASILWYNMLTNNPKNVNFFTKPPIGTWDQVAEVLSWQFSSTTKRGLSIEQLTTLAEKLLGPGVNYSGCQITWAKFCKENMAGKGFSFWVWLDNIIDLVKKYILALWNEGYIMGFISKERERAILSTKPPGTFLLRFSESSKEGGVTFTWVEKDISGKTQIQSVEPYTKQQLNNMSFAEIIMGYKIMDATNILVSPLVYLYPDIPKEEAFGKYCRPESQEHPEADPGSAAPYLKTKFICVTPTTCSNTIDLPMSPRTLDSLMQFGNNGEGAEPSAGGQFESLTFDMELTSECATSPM

CC(=O)N1CC[C@H]2CC[C@@H](C(=O)N[C@@H](CCC(N)=O)[C@@H](C)OCc3ccc(CCCCC(=O)N[C@H](C(=O)N4C[C@H](O)C[C@H]4C(=O)NCc4ccc(-c5scnc5C)cc4)C(C)(C)C)cc3)N2C(=O)[C@@H](NC(=O)c2cc3cc(C(=O)P(=O)(O)O)ccc3[nH]2)C1 [Compound I-165] and Cc1ncsc1-c1ccc(CNC(=O)[C@@H]2C[C@@H](O)CN2C(=O)[C@@H](NC(=O)NCCCc2ccc(CO[C@H](C)[C@H](CCC(N)=O)NC(=O)[C@@H]3Cc4cccc5c4N3C(=O)[C@@H](NC(=O)c3cc4cc(C(=O)P(=O)(O)O)ccc4[nH]3)CC5)cc2)C(C)(C)C)cc1 [Compound I-151, 2-[[(2S,11S)-2-[[(3S,4R)-1-carbamoyl-4-([4-[3-([[(2S)-1-[(2S,4R)-4-hydroxy-2-([[4-(4-methyl-1,3-thiazol-5-yl)phenyl]methyl]carbamoyl)pyrrolidin-1-yl]-3,3-dimethyl-1-oxobutan-2-yl]carbamoyl]amino)propyl]phenyl]methoxy)pentan-3-yl]carbamoyl]-12-oxo-1-azatricyclo[6.4.1.0^[4,13]]trideca-4(13),5,7-trien-11-yl]carbamoyl]-1H-indole-5-carbonylphosphonic acid] fall in the same range of DC50: 100 to 1000 nM for the first, 100 to 1000 nM for the second.

First: Cc1ncsc1-c1ccc([C@H](C)NC(=O)[C@@H]2C[C@@H](O)CN2C(=O)[C@@H](NC(=O)OCCCCc2cccc(OC[C@H](CCC(N)=O)NC(=O)[C@@H]3Cc4cccc5c4N3C(=O)[C@@H](NC(=O)c3cc4cc(C(=O)P(=O)(O)O)ccc4[nH]3)CC5)c2F)C(C)(C)C)cc1 [Compound I-281]
Second: Cc1ncsc1-c1ccc([C@H](C)NC(=O)[C@@H]2C[C@@H](O)CC2C(=O)[C@@H](NC(=O)OCCCCc2cccc(N(C)CC(CCC(N)=O)NC(=O)[C@@H]3Cc4cccc5c4N3C(=O)[C@@H](NC(=O)c3cc4cc(C(=O)P(=O)(O)O)ccc4[nH]3)CC5)c2F)C(C)(C)C)cc1 (stereo partly shown) [Compound I-254]
The DC50 of the first is lower: under 10 nM for the first, 100 to 1000 nM for the second.

Cn1c(=O)n(C2CCC(=O)NC2=O)c2ccc(CCCCCCCc3cc4c5c(c3)C[C@@H](C(=O)N[C@@H](CCC(N)=O)C(=O)NC(c3ccccc3)c3ccccc3)N5C(=O)[C@@H](NC(=O)c3cc5cc(C(=O)P(=O)(O)O)ccc5[nH]3)CC4)cc21 (stereo partly drawn) [Compound I-182, 2-[[(2S,11S)-2-[[(1S)-3-carbamoyl-1-(diphenylmethylcarbamoyl)propyl]carbamoyl]-6-[7-[1-(2,6-dioxopiperidin-3-yl)-3-methyl-2-oxo-1,3-benzodiazol-5-yl]heptyl]-12-oxo-1-azatricyclo[6.4.1.0^[4,13]]trideca-4(13),5,7-trien-11-yl]carbamoyl]-1H-indole-5-carbonylphosphonic acid] and Cn1c(=O)n(C2CCC(=O)NC2=O)c2ccc(CCCCCc3cc4c5c(c3)C[C@@H](C(=O)N[C@@H](CCC(N)=O)C(=O)NC(c3ccccc3)c3ccccc3)N5C(=O)[C@@H](NC(=O)c3cc5cc(C(=O)P(=O)(O)O)ccc5[nH]3)CC4)cc21 (stereo partly drawn) [Compound I-198, 2-[[(2S,11S)-2-[[(1S)-3-carbamoyl-1-(diphenylmethylcarbamoyl)propyl]carbamoyl]-6-[5-[1-(2,6-dioxopiperidin-3-yl)-3-methyl-2-oxo-1,3-benzodiazol-5-yl]pentyl]-12-oxo-1-azatricyclo[6.4.1.0^[4,13]]trideca-4(13),5,7-trien-11-yl]carbamoyl]-1H-indole-5-carbonylphosphonic acid] fall in the same range of DC50: 100 to 1000 nM for the first, 100 to 1000 nM for the second.

Cc1ncsc1-c1ccc([C@H](C)NC(=O)[C@@H]2C[C@@H](O)CN2C(=O)[C@@H](NC(=O)CCCc2cccc(OC[C@H](CCC(N)=O)NC(=O)[C@@H]3CCCN3C(=O)[C@H](CC(C)C)NC(=O)c3cc4cc(C(=O)P(=O)(O)O)ccc4[nH]3)c2Cl)C(C)(C)C)cc1 [Compound I-240] and Cc1ncsc1-c1ccc([C@H](C)NC(=O)[C@@H]2C[C@@H](O)CN2C(=O)[C@@H](NC(=O)CCCCc2cccc(NC(=O)C(CCC(N)=O)NC(=O)[C@@H]3Cc4cccc5c4N3C(=O)[C@@H](NC(=O)c3cc4cc(C(=O)P(=O)(O)O)ccc4[nH]3)CC5)c2Cl)C(C)(C)C)cc1 (stereo partly drawn) [Compound I-246, diammonium 2-[[(2S,11S)-2-[(3-carbamoyl-1-[[2-chloro-3-(4-[[(2S)-1-[(2S,4R)-4-hydroxy-2-[[(1S)-1-[4-(4-methyl-1,3-thiazol-5-yl)phenyl]ethyl]carbamoyl]pyrrolidin-1-yl]-3,3-dimethyl-1-oxobutan-2-yl]carbamoyl]butyl)phenyl]carbamoyl]propyl)carbamoyl]-12-oxo-1-azatricyclo[6.4.1.0^[4,13]]trideca-4(13),5,7-trien-11-yl]carbamoyl]-1H-indole-5-carbonylphosphonate] fall in the same range of DC50: 10 to 100 nM for the first, 10 to 100 nM for the second.

Compared with Cn1c(=O)n(C2CCC(=O)NC2=O)c2ccc(C3CCN(CCCC(=O)N4CC[C@H]5CC[C@@H](C(=O)N[C@@H](CCC(N)=O)C(=O)NC(c6ccccc6)c6ccccc6)N5C(=O)[C@@H](NC(=O)c5cc6cc(C(=O)P(=O)(O)O)ccc6[nH]5)C4)CC3)cc21 (stereo partly drawn) [Compound I-169, 2-[[(5S,8S,10aR)-8-[[(1S)-3-carbamoyl-1-(diphenylmethylcarbamoyl)propyl]carbamoyl]-3-(4-[4-[1-(2,6-dioxopiperidin-3-yl)-3-methyl-2-oxo-1,3-benzodiazol-5-yl]piperidin-1-yl]butanoyl)-6-oxo-octahydropyrrolo[1,2-a][1,5]diazocin-5-yl]carbamoyl]-1H-indole-5-carbonylphosphonic acid], Cc1ncsc1-c1ccc([C@H](C)NC(=O)[C@@H]2C[C@@H](O)CN2C(=O)[C@@H](NC(=O)CCCCCc2cc(Cl)cc(NC(=O)[C@H](CCC(N)=O)NC(=O)[C@@H]3Cc4cccc5c4N3C(=O)[C@@H](NC(=O)c3cc4cc(C(=O)P(=O)(O)O)ccc4[nH]3)CC5)c2)C(C)(C)C)cc1 [Compound I-257, 2-[[(2S,11S)-2-[[(1S)-3-carbamoyl-1-[[3-chloro-5-(5[[(2S)-1-[(2S,4R)-4-hydroxy-2-[[(1S)-1-[4-(4-methyl-1,3-thiazol-5-yl)phenyl]ethyl]carbamoyl]pyrrolidin-1-yl]-3,3-dimethyl-1-oxobutan-2-yl]carbamoyl]pentyl)phenyl]carbamoyl]propyl]carbamoyl]-12-oxo-1-azatricyclo[6.4.1.0^[4,13]]trideca-4(13),5,7-trien-11-yl]carbamoyl]-1H-indole-5-carbonylphosphonic acid] is lower in DC50: 100 to 1000 nM for the first, 10 to 100 nM for the second.

Cc1ncsc1-c1ccc(CNC(=O)[C@@H]2C[C@@H](O)CN2C(=O)[C@@H](NC(=O)CC2CCN(c3ccc(CO[C@H](C)[C@H](CCC(N)=O)NC(=O)[C@@H]4Cc5cccc6c5N4C(=O)[C@@H](NC(=O)c4cc5cc(C(=O)P(=O)(O)O)ccc5[nH]4)CC6)cc3)CC2)C(C)(C)C)cc1 [Compound I-162, diammonium 2-[[(2S,11S)-2-[[(3S,4R)-1-carbamoyl-4-([4-[4-([[(2S)-1-[(2S,4R)-4-hydroxy-2-([[4-(4-methyl-1,3-thiazol-5-yl)phenyl]methyl]carbamoyl)pyrrolidin-1-yl]-3,3-dimethyl-1-oxobutan-2-yl]carbamoyl]methyl)piperidin-1-yl]phenyl]methoxy)pentan-3-yl]carbamoyl]-12-oxo-1-azatricyclo[6.4.1.0^[4,13]]trideca-4(13),5,7-trien-11-yl]carbamoyl]-1H-indole-5-carbonylphosphonate] and Cc1ncsc1-c1ccc([C@H](C)NC(=O)[C@@H]2C[C@H](O)CN2C(=O)[C@@H](NC(=O)CCCCc2ccc(CO[C@H](C)[C@H](CCC(N)=O)NC(=O)[C@@H]3Cc4cccc5c4N3C(=O)[C@@H](NC(=O)c3cc4cc(C(=O)P(=O)(O)O)ccc4[nH]3)CC5)cc2)C(C)(C)C)cc1 [Compound I-149, diammonium 2-[[(2S,11S)-2-[[(3S,4R)-1-carbamoyl-4-[[4-(4-[[(2S)-1-[(2S,4S)-4-hydroxy-2-[[(1S)-1-[4-(4-methyl-1,3-thiazol-5-yl)phenyl]ethyl]carbamoyl]pyrrolidin-1-yl]-3,3-dimethyl-1-oxobutan-2-yl]carbamoyl]butyl)phenyl]methoxy]pentan-3-yl]carbamoyl]-12-oxo-1-azatricyclo [6.4.1.0^[4,13]]trideca-4(13),5,7-trien-11-yl]carbamoyl]-1H-indole-5-carbonylphosphonate] cannot be ordered by DC50: over 1000 nM for the first, over 1000 nM for the second.

Same assay, conditions: read-out: STAT3 HiBiT A549 degradation 24 h: Average external-Abs DC50; A549, 24 h

With Cc1ncsc1-c1ccc([C@H](C)NC(=O)[C@@H]2C[C@@H](O)CN2C(=O)[C@@H](NC(=O)CCCCc2cccc(OC[C@H](CCC(N)=O)NC(=O)[C@@H]3CCCN3C(=O)[C@H](CC(C)C)NC(=O)c3cc4cc(C(=O)P(=O)(O)O)ccc4[nH]3)c2F)C(C)(C)C)cc1 [Compound I-276, diammonium 2-[[(2S)-1-[(2S)-2-[[(2S)-4-carbamoyl-1-[2-fluoro-3-(4-[[(2S)-1-[(2S,4R)-4-hydroxy-2-[[(1S)-1-[4-(4-methyl-1,3-thiazol-5-yl)phenyl]ethyl]carbamoyl]pyrrolidin-1-yl]-3,3-dimethyl-1-oxobutan-2-yl]carbamoyl]butyl)phenoxy]butan-2-yl]carbamoyl]pyrrolidin-1-yl]-4-methyl-1-oxopentan-2-yl]carbamoyl]-1H-indole-5-carbonylphosphonate] the DC50 was under 10 nM.
